Assays:
[1] = Cytotoxicity against human Fem-X cells after 72 hrs by MTT assay; type: functional, cell-based
[2] = tested on: PBMC; assay: Cytotoxicity against human PBMC cells in absence of phytohemagglutinin after 72 hrs by MTT assay; type: cell-based
[3] = tested on: K562; assay: Cytotoxicity against human K562 cells after 72 hrs by MTT assay; type: functional, cell-based; conditions: K562, 72 h
[4] = tested on: HeLa; assay: Cytotoxicity against human HeLa cells after 72 hrs by MTT assay; type: functional, cell-based
[5] = tested on: PBMC; assay: Cytotoxicity against human PBMC cells in presence of phytohemagglutinin after 72 hrs by MTT assay; type: cell-based
[6] = Homo sapiens, HeLa, 72 h, read-out: IC50

Q: Which IC50 [1] does the source give for `COc1ccc(Nc2c(-c3ccccc3)cnc3ccccc23)cc1` here?
A: 35 µM

Q: And the IC50 [2]?
A: 72 µM

Q: What about the IC50 [3] of the same molecule?
A: 25 µM

Q: What about the IC50 [4, 6] of the same molecule?
A: 64 µM

Q: And the IC50 [5]?
A: 62 µM

Q: Which IC50 [1] does the source give for `CCc1ccc(Nc2nc3ccccc3cc2-c2ccccc2)cc1` here?
A: 92 µM

Q: And the IC50 [2]?
A: 73 µM

Q: What about the IC50 [3] of the same molecule?
A: 99 µM

Q: What about the IC50 [4, 6] of the same molecule?
A: 140 µM

Q: And the IC50 [5]?
A: 66 µM

Q: What does the source list for `COc1ccc(Nc2nc3ccccc3cc2-c2ccc(C)cc2)cc1`?
A: IC50 [1]: 65 µM; IC50 [2]: 137 µM; IC50 [3]: 75 µM; IC50 [4, 6]: 102 µM; IC50 [5]: 118 µM

Q: With `COc1ccc(Nc2c(-c3ccc(OC)cc3)cnc3ccccc23)cc1` as the molecule, how does the IC50 [1] read?
A: 56 µM

Q: And the IC50 [2]?
A: 122 µM

Q: What about the IC50 [3] of the same molecule?
A: 25 µM

Q: What about the IC50 [4, 6] of the same molecule?
A: 104 µM

Q: And the IC50 [5]?
A: 105 µM

Q: Which results are given for `COc1ccc(Nc2ccccn2)cc1`?
A: IC50 [1]: 123 µM; IC50 [2]: 46 µM; IC50 [3]: 63 µM; IC50 [4, 6]: 117 µM; IC50 [5]: 42 µM

Q: With `COc1cccc(Nc2nc3ccccc3cc2-c2ccccc2)c1` as the molecule, how does the IC50 [1] read?
A: 129 µM

Q: What about the IC50 [2] of the same molecule?
A: 119 µM

Q: What about the IC50 [3] of the same molecule?
A: 76 µM

Q: What about the IC50 ([4]; hela) of the same molecule?
A: ND(toxic)

Q: And the IC50 [5]?
A: 81 µM

Q: Which IC50 [1] does the source give for `COc1cccc(Nc2cc(-c3cccc(C(F)(F)F)c3)ccn2)c1` here?
A: > 200 µM

Q: And the IC50 [4, 6]?
A: > 200 µM

Q: Which results are given for `COc1ccc(Nc2cc(-c3cccc(C(F)(F)F)c3)ccn2)cc1`?
A: IC50 [1]: 68 µM; IC50 [2]: 132 µM; IC50 [3]: 78 µM; IC50 [4, 6]: 140 µM; IC50 [5]: 105 µM

Q: What does the source list for `COc1ccc(Nc2cccnc2)cc1`?
A: IC50 [1]: 118 µM; IC50 [2]: 96 µM; IC50 [3]: 68 µM; IC50 [4, 6]: 145 µM; IC50 [5]: 183 µM

Q: With `CCc1ccc(Nc2cc(-c3cccc(C(F)(F)F)c3)ccn2)cc1` as the molecule, how does the IC50 [1] read?
A: > 200 µM

Q: What about the IC50 [4, 6] of the same molecule?
A: > 200 µM

Q: For `Fc1ccc(Nc2ccc3ccccc3n2)cc1`, which IC50 [1] is on record?
A: 35 µM

Q: What about the IC50 [2] of the same molecule?
A: 90 µM

Q: What about the IC50 [3] of the same molecule?
A: 36 µM

Q: And the IC50 [4, 6]?
A: 33 µM

Q: And the IC50 [5]?
A: 65 µM

Q: Which IC50 [1] does the source give for `COc1ccc(Nc2cc(-c3ccc(C)cc3)ccn2)cc1` here?
A: 33 µM

Q: What about the IC50 [2] of the same molecule?
A: 52 µM

Q: And the IC50 [3]?
A: 19 µM

Q: What about the IC50 [4, 6] of the same molecule?
A: 43 µM

Q: And the IC50 [5]?
A: 34 µM

Q: Which IC50 [1] does the source give for `COc1ccc(Nc2ccc3ccccc3n2)cc1` here?
A: 43 µM

Q: And the IC50 [2]?
A: 91 µM

Q: And the IC50 [3]?
A: 30 µM

Q: What about the IC50 [4, 6] of the same molecule?
A: 51 µM

Q: And the IC50 [5]?
A: 70 µM

Q: Which IC50 [1] does the source give for `Cc1ccc(-c2ccnc(Nc3ccc(F)cc3)c2)cc1` here?
A: 79 µM

Q: What about the IC50 [2] of the same molecule?
A: 127 µM

Q: And the IC50 [3]?
A: 54 µM

Q: And the IC50 [4, 6]?
A: 146 µM

Q: And the IC50 [5]?
A: 146 µM

From ChEMBL document CHEMBL2069279, “Target fishing and docking studies of the novel derivatives of aryl-aminopyridines with potential anticancer activity” (Bioorg Med Chem, 2012)
